Among the data in patent publication US11452717B2, “Small molecule activators of nicotinamide phosphoribosyltransferase (NAMPT) and uses thereof” (Sanford Burnham Prebys Medical Discovery Institute, priority 2017, dated 2022) are EC50 values, retold here.

A word on the EC50: it is the concentration giving half of the maximal effect. A low value points to a more potent agent.

For this assay, the target named is NAMPT enzyme (Homo sapiens (Human), UniProt P43490). Kind of assay: Enzyme Assay and NMN Detection (NAMPT reaction, fluorescence detection of NMN). The class given is biochemical. To be noted: NAMPT activation, NMN formation. An outline of the steps: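 NMN formed was read at ex380/em460 after acetophenone/KOH derivatization and formic acid addition, using a same-day calibration curve. Final conditions: NAMPT 16 nM, nicotinamide 5 uM, PRPP 6.25 uM, ATP 120 uM, pyrophosphatase 0.04 U/ml, pH 7.5 HEPES buffer with MgCl2 and TCEP, 2 h at room temperature.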
Chain of NAMPT enzyme (P43490 whole entry, species assumed): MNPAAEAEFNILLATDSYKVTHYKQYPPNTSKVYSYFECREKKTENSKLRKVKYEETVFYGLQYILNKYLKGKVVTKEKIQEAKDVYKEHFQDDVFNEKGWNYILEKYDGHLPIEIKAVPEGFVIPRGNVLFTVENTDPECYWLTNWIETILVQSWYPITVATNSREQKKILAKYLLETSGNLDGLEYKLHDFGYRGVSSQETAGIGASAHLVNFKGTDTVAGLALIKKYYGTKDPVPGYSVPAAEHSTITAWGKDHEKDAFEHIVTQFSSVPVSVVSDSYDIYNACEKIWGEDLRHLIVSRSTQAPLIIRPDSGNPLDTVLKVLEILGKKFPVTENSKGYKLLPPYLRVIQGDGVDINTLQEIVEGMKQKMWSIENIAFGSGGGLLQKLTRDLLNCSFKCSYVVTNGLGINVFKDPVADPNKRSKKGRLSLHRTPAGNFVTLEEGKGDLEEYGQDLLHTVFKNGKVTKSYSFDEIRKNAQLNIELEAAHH

In the case of `Cc1cc(NC(=O)c2ccc(NC(=O)NCc3ccncc3)cc2)on1` [N-(3-methylisoxazol-5-yl)-4-(3-(pyridin-4-ylmethyl)ureido)benzamide], the EC50 (Table B-2) lay in the range of 2 to 5 µM.

`Cc1nc(NS(=O)(=O)c2ccc(NC(=O)NCc3ccncc3)cc2)oc1C` [N-(4,5-Dimethyl-oxazol-2-yl)-4-(3-pyridin-4-ylmethyl-ureido)-benzenesulfonamide]: the EC50 (Table B-2) is above 20 µM.

As to `O=C(NCc1cn[nH]c1)Nc1ccc(NS(=O)(=O)Cc2ccccc2)cc1` [N-(4-(3-((1H-pyrazol-4-yl)methyl)ureido)phenyl)-1-phenylmethanesulfonamide], the EC50 (Table B-1) was below 0.1 µM.

Consider `CN(C)Cc1ccc(CNS(=O)(=O)c2ccc(NC(=O)NCc3ccncc3)cc2)cc1` [N-(4-((dimethylamino)methyl)benzyl)-4-(3-(pyridin-4-ylmethyl)ureido)benzenesulfonamide], for which the EC50 (Table B-2) is below 0.1 µM.

As for `CN(C)c1ccc(NC(=O)c2ccc(NC(=O)NCc3ccncc3)cc2)cc1` [N-(4-(dimethylamino)phenyl)-4-(3-(pyridin-4-ylmethyl)ureido)benzamide], the EC50 (Table B-2) fell in the range of 0.1 to 2 µM.

In turn, `COCc1ccc(NC(=O)c2ccc(NC(=O)NCc3ccncc3)cc2)cc1` [N-(4-(methoxymethyl)phenyl)-4-(3-(pyridin-4-ylmethyl)ureido)benzamide] showed an EC50 (Table B-2) above 20 µM.

On to `O=C(NCc1cn[nH]c1)Nc1ccc(S(=O)(=O)NCc2ccc(Cl)cc2)cc1` [N-(4-Chloro-benzyl)-4-[3-(1H-pyrazol-4-ylmethyl)-ureido]-benzenesulfonamide], for which, under “Table B-1”, the EC50 lay in the range of 0.1 to 2 µM.

The compound `CN(C)c1ccc(CNS(=O)(=O)c2ccc(NC(=O)NCc3ccncc3)cc2)cc1` [N-(4-Dimethylamino-benzyl)-4-(3-pyridin-4-ylmethyl-ureido)-benzenesulfonamide] registered an EC50 (Table B-2) of 0.1 to 2 µM.

Under “Table B-2”, `CS(=O)(=O)c1ccc(CNS(=O)(=O)c2ccc(NC(=O)NCc3ccncc3)cc2)cc1` [N-(4-Methanesulfonyl-benzyl)-4-(3-pyridin-4-ylmethyl-ureido)-benzenesulfonamide] had an EC50 of 0.1 to 2 µM.

`COc1ccc(CNS(=O)(=O)c2ccc(NC(=O)NCc3cn[nH]c3)cc2)cc1` [N-(4-Methoxy-benzyl)-4-[3-(1H-pyrazol-4-ylmethyl)-ureido]-benzenesulfonamide]: for the setting “Table B-1”, the EC50 was below 0.1 µM.

As for `COc1ccc(NS(=O)(=O)c2ccc(NC(=O)NCc3ccncc3)cc2)cc1` [N-(4-Methoxy-phenyl)-4-(3-pyridin-4-ylmethyl-ureido)-benzenesulfonamide], where the note is “Table B-2”, the EC50 was 0.1 to 2 µM.

For the setting “Table B-2”, `COCc1ccc(CNS(=O)(=O)c2ccc(NC(=O)NCc3ccncc3)cc2)cc1` [N-(4-Methoxymethyl-benzyl)-4-(3-pyridin-4-ylmethyl-ureido)-benzenesulfonamide] displayed an EC50 of 0.1 to 2 µM.

Compound `Cc1ccc(CNS(=O)(=O)c2ccc(NC(=O)NCc3cn[nH]c3)cc2)cc1` [N-(4-Methyl-benzyl)-4-[3-(1H-pyrazol-4-ylmethyl)-ureido]-benzenesulfonamide] registered an EC50 (Table B-4) of 0.1 to 2 µM.

For the setting “Table B-2”, `Cc1ccnc(NS(=O)(=O)c2ccc(NC(=O)NCc3ccncc3)cc2)n1` [N-(4-Methyl-pyrimidin-2-yl)-4-(3-pyridin-4-ylmethyl-ureido)-benzenesulfonamide] yielded an EC50 of 0.1 to 2 µM.

Consider `O=C(NCc1ccncc1)Nc1ccc(C(=O)NCc2ccc(Cl)cc2)cc1` [N-(4-chlorobenzyl)-4-(3-(pyridin-4-ylmethyl)ureido)benzamide], for which the EC50 (Table B-2) was above 20 µM.

Where the note is “Table B-2”, `O=C(NCc1ccncc1)Nc1ccc(S(=O)(=O)NCc2ccc(Cl)cc2)cc1` [N-(4-chlorobenzyl)-4-(3-(pyridin-4-ylmethyl)ureido)benzenesulfonamide] came in with an EC50 of 0.1 to 2 µM.

Take `O=C(NCc1ccncc1)Nc1ccc(C(=O)Nc2ccc(Cl)cc2)cc1` [N-(4-chlorophenyl)-4-(3-(pyridin-4-ylmethyl)ureido)benzamide]: the EC50 (Table B-2) is 0.1 to 2 µM.

In the case of `N#Cc1ccc(CNS(=O)(=O)c2ccc(NC(=O)NCc3ccncc3)cc2)cc1` [N-(4-cyanobenzyl)-4-(3-(pyridin-4-ylmethyl)ureido)benzenesulfonamide], the EC50 (Table B-2) fell in the range of 0.1 to 2 µM.

Where the note is “Table B-2”, `N#Cc1ccc(NC(=O)c2ccc(NC(=O)NCc3ccncc3)cc2)cc1` [N-(4-cyanophenyl)-4-(3-(pyridin-4-ylmethyl)ureido)benzamide] had a concentration giving a half-maximal response (EC50) of 0.1 to 2 µM.

On to `CCOc1ccc(NC(=O)c2ccc(NC(=O)NCc3ccncc3)cc2)cc1` [N-(4-ethoxyphenyl)-4-(3-(pyridin-4-ylmethyl)ureido)benzamide], for which the EC50 (Table B-2) was in the range of 0.1 to 2 µM.

Regarding `O=C(NCc1ccncc1)Nc1ccc(C(=O)NCc2ccc(F)cc2)cc1` [N-(4-fluorobenzyl)-4-(3-(pyridin-4-ylmethyl)ureido)benzamide], where the note is “Table B-2”, the EC50 was above 20 µM.

`O=C(NCc1ccncc1)Nc1ccc(S(=O)(=O)NCc2ccc(F)cc2)cc1` [N-(4-fluorobenzyl)-4-(3-(pyridin-4-ylmethyl)ureido)benzenesulfonamide] displayed an EC50 (Table B-2) of 0.1 to 2 µM.

Under “Table B-2”, `O=C(NCc1ccncc1)Nc1ccc(C(=O)NCCc2ccc(F)cc2)cc1` [N-(4-fluorophenethyl)-4-(3-(pyridin-4-ylmethyl)ureido)benzamide] yielded an EC50 of 0.1 to 2 µM.

`O=C(NCc1ccncc1)Nc1ccc(C(=O)Nc2ccc(F)cc2)cc1` [N-(4-fluorophenyl)-4-(3-(pyridin-4-ylmethyl)ureido)benzamide]: the EC50 (Table B-2) lay in the range of 0.1 to 2 µM.

Take `CC(C)Oc1ccc(NC(=O)c2ccc(NC(=O)NCc3ccncc3)cc2)cc1` [N-(4-isopropoxyphenyl)-4-(3-(pyridin-4-ylmethyl)ureido)benzamide]: under “Table B-2”, the EC50 lay within 0.1 to 2 µM.

Regarding `COc1ccc(NC(=O)c2ccc(NC(=O)NCc3ccncc3)cc2)cc1C` [N-(4-methoxy-3-methylphenyl)-4-(3-(pyridin-4-ylmethyl)ureido)benzamide], the EC50 (Table B-2) is 0.1 to 2 µM.

`COc1ccc(CNC(=O)c2ccc(NC(=O)NCc3ccncc3)cc2)cc1` [N-(4-methoxybenzyl)-4-(3-(pyridin-4-ylmethyl)ureido)benzamide] displayed an EC50 (Table B-2) above 20 µM.

Compound `COc1ccc(CNS(=O)(=O)c2ccc(NC(=O)NCc3ccncc3)cc2)cc1` [N-(4-methoxybenzyl)-4-(3-(pyridin-4-ylmethyl)ureido)benzenesulfonamide] displayed an EC50 (Table B-2) of 0.1 to 2 µM.

For the compound `COc1ccc(NC(=O)c2ccc(NC(=O)NCc3ccncc3)cc2)cc1` [N-(4-methoxyphenyl)-4-(3-(pyridin-4-ylmethyl)ureido)benzamide], the EC50 (Table B-2) lay in the range of 0.1 to 2 µM.

For the compound `Cc1ccc(CNC(=O)c2ccc(NC(=O)NCc3ccncc3)cc2)cc1` [N-(4-methylbenzyl)-4-(3-(pyridin-4-ylmethyl)ureido)benzamide], the EC50 (Table B-2) was above 20 µM.

The compound `Cc1ccc(CNS(=O)(=O)c2ccc(NC(=O)NCc3ccncc3)cc2)cc1` [N-(4-methylbenzyl)-4-(3-(pyridin-4-ylmethyl)ureido)benzenesulfonamide] yielded an EC50 (Table B-2) of 0.1 to 2 µM.

In turn, `Cc1ccc(CCNC(=O)c2ccc(NC(=O)NCc3ccncc3)cc2)cc1` [N-(4-methylphenethyl)-4-(3-(pyridin-4-ylmethyl)ureido)benzamide] returned an EC50 (Table B-2) of 0.1 to 2 µM.

As for `COc1ccc(Cn2cc(CNC(=O)Nc3ccc(NS(=O)(=O)c4ccccc4)cc3)cn2)cc1` [N-(4-{3-[1-(4-Methoxy-benzyl)-1H-pyrazol-4-ylmethyl]-ureido}-phenyl)-benzenesulfonamide], for the setting “Table B-1”, the EC50 is above 20 µM.

Under “Table B-2”, `Cc1cc(NS(=O)(=O)c2ccc(NC(=O)NCc3ccncc3)cc2)no1` [N-(5-Methyl-isoxazol-3-yl)-4-(3-pyridin-4-ylmethyl-ureido)-benzenesulfonamide] had an EC50 above 20 µM.
